US20210199658A1, “DETECTION OF LIPASE ACTIVITY IN HONEY BEES” (The United States of America, as Represented by the …, priority 2019, published 2021)

Key:
honey bees [1] = test: Time course of lipase activity (RFU) in honey bees challenged with imidacloprid; assay type: in vivo, Apis mellifera
Protocol: Healthy honey bees were challenged in a cup-cage environment with either 5 ppb or 50 ppb of the neonicotinoid imidacloprid. The lipase activity levels were measured during a 50 minute time course, as taught herein.
To determine if it is possible to detect a difference between healthy bees and DWV-infected bees using the EnzChek lipase substrate and the buffers taught herein, a time course assay was performed using a set amount of EnzChek lipase substrate and a fixed amount of extracted pupae. […] In this figure, the relative fluorescence intensity (RFU) measured was plotted against time. Using linear regression, a significant difference in slopes was observable between individuals from DWV-infected hives, and individuals from healthy hives. The slope obtained for DWV-infected individuals was about 13.8 higher than the slope obtained for healthy individuals.
Healthy seven and fourteen-day-old emerging adult honey bees were obtained from field colonies and were challenged with either 5 ppb or 50 ppb of the neonicotinoid imidacloprid. Same-aged bees were collected from unchallenged colonies acted as controls. The lipase activity levels were measured during a 30-minute time course, as in Example 3. […] Statistical significance was determined using pair-wise Kaplan Meier linear regression (P<0.01).

honey bees [2] = test: Total lipid content of imidacloprid-challenged bees, vanillin assay; assay type: in vivo, Apis mellifera
Protocol: The total lipid content on bees challenged with either 5 ppb or 50 ppb imidacloprid was measured using the vanillin assay, performed as in Example 4. The measured lipid levels (in mg/mL) were plotted, and the results are shown on FIG. 10. The total lipid content for bees treated with 5 ppb imidacloprid (P<0.01) or 50 ppb imidacloprid (P<0.05) was approximately 3-fold lower than the total lipid content measured in control bees.
To determine if the lipase activity measured in healthy and DWV-infected hives correlated with the measured lipid levels, the vanillin assay (Foray, V., et al., 2012, “A handbook for uncovering the complete energetic budget in insects: the van Handel's method (1985) revisited,” Physiol. Entomol. 37: 295-302) was used to measure the lipid levels in the bees. Briefly, vanillin reagent was prepared by mixing vanillin (V1104; Sigma-Aldrich, St. Louis, Mo., USA) with 68% ortho-phosphoric acid, reaching a final concentration of 1.2 g/L. For the assay, 100 μL of homogenized pupae in PBS was transferred into a borosilicate microplate well and heated at 90° C. until complete solvent evaporation. Ten microliters of 98% sulphuric acid was then added to each well, and the microplate was incubated at 90° C. for 2 minutes in a water bath. […] The plate was homogenized, incubated at room temperature for 15 minutes and its absorbance was measured spectrophotometrically at 525 nm.

O=[N+]([O-])NC1=NCCN1Cc1ccc(Cl)nc1 [imidacloprid, 1-(6-chloro-3-pyridylmethyl)-N-nitroimidazolidin-2-ylideneamine]
lipase activity levels (slope of RFU against time) compared with control bees (honey bees [1]; bees challenged with 5 ppb imidacloprid): similar
lipase activity levels (RFU against time) compared with control bees (honey bees [1]; bees challenged with 50 ppb imidacloprid, linear regression P<0.01): significantly higher
total lipid content, fold lower than control bees (honey bees [2]; bees treated with 5 ppb imidacloprid, P<0.01): approximately 3 fold
total lipid content, fold lower than control bees (honey bees [2]; bees treated with 50 ppb imidacloprid, P<0.05): approximately 3 fold
